This passage reports TGI results from PubChem BioAssay (NCI).

What all share (test): NCI anticancer screen, dose series, 48 h
The subject of experiment [1] is OVCAR-8 ovarian.
For experiment [2], the system named is MOLT-4 leukemia.
In experiment [3] the test system is HCT-116 colon.
Experiment [4] has as its system SW-620 colon.
Experiment [5] relates to K-562 leukemia.
Experiment [6] concerns SK-MEL-2 melanoma.
Experiment [7] deals with SF-539 CNS.
Experiment [8] concerns UACC-257 melanoma.
Experiment [9] has as its system IGROV1 ovarian.
In experiment [10] the test system is SN12C renal.

The structures appear in SMILES notation.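 Grown in 96-well plates, cells were treated for 48 hours with each compound at five concentrations. Insufficient inhibition: endpoint recorded as highest concentration tested. TGI: concentration producing complete growth inhibition.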

`COc1ccccc1C1ON=C(c2ccc([N+](=O)[O-])cc2)N1C12CC3CC(CC(C3)C1)C2` (stereo not given): the TGI in experiment [1], in experiment [2], in experiment [3], in experiment [4], in experiment [5] and in experiment [6] was greater than 100 µM throughout. Further, the TGI in experiment [7], in experiment [8], in experiment [9] and in experiment [10] was greater than 100 µM each time.

With `COC(=O)C1(C#N)C(C)(C)N=C(c2ccccc2)C12CCCCC2` (stereo not given), the TGI in experiment [1], in [2], in [3], in experiment [4], in experiment [5] and in [6] was greater than 100 µM in each case. Further, the TGI in experiment [7], in [8], in [9] and in [10] was greater than 100 µM throughout.

Consider `O=C1C(=O)N(c2cccc(C(F)(F)F)c2)C(=S)N1c1ccccc1`, for which the TGI in experiment [1] is greater than 100 µM; in experiment [2], greater than 100 µM; in experiment [3] it was greater than 100 µM; in [4], greater than 100 µM; in [5], greater than 100 µM; in [6] it was 40.5 µM. For the same compound, the TGI in experiment [7] was 80.6 µM; in experiment [8], 71.8 µM; in experiment [9] it was 63.2 µM; in experiment [10], greater than 100 µM.

On to `N#CC(=N)c1ncn(-c2ccc(N)cc2)c1N`, for which the TGI in [1], in experiment [2], in [3], in experiment [4], in experiment [5] and in [6] was greater than 100 µM each time. In addition, the TGI in experiment [7], in experiment [8], in experiment [9] and in [10] was greater than 100 µM in each case.

As for `C/C=C(\C)C(O)C(C)C(O)C/C=C(C)/C=C(\C)C/C(C)=C/C/C=C(\C)C(O)C(C)c1ccc(CCC)c(=O)o1` (stereo not given), the TGI is 48.7 µM in experiment [1]; greater than 100 µM in experiment [2]; 19.7 µM in experiment [3]; 28.4 µM in [4]; greater than 100 µM in experiment [5]; 45 µM in experiment [6]. Further, the TGI in experiment [7] came out at 28.2 µM; in [8], 15.2 µM; in experiment [9] it was 32.8 µM; in experiment [10], 46.2 µM.

Take `NC(=O)NCCCC(NC(=O)OCCCCCCn1ccc(=O)[nH]c1=O)C(=O)O` (stereo not given): the TGI in experiment [1], in [2], in [3], in experiment [4], in experiment [5] and in experiment [6] was greater than 100 µM throughout. Also, the TGI in experiment [7], in experiment [8], in [9] and in experiment [10] was greater than 100 µM in each case.

Take `CS(=O)(=O)c1ccc(N=C/C=C/Nc2ccc(S(C)(=O)=O)cc2)cc1`: the TGI in experiment [1], in [2], in [3], in [4], in experiment [5] and in experiment [6] was greater than 100 µM in each case. Also, the TGI in experiment [7], in [8], in [9] and in experiment [10] was greater than 100 µM in each case.

For `CC[C@@]1(C)CCC2c3ccc(O)cc3CC[C@H]2C1C` (stereo not given in full), the TGI in experiment [1] was found to be 33.8 µM; in [2], 32.5 µM; in experiment [3], 31.9 µM; in experiment [4] it was 32.4 µM; in experiment [5], 23.3 µM; in [6] it was 32.8 µM. Moreover, the TGI in [7] stood at 35.4 µM; in experiment [8], 29.3 µM; in experiment [9] it was 38.1 µM; in experiment [10], 34.3 µM.

With `CC(C)=CCC/C(C)=C/CC/C(C)=C/CC/C(C)=C/CC/C(C)=C/CC/C(C)=C/CC/C(C)=C/CC/C(C)=C/CC/C(C)=C/CO`, the TGI in experiment [1], in experiment [2], in experiment [3], in experiment [4], in [5] and in experiment [6] was greater than 100 µM each time. The TGI in experiment [7], in experiment [8], in experiment [9] and in experiment [10] was greater than 100 µM each time.

With `COC(=O)c1cc(C(=CCC[C@H]2CC[C@@]3(C)C(CCC4C3CC[C@@]3(C)C4CC[C@@H]3C(C)CCCC(C)C)C2)c2cc(Cl)c(O)c(C(=O)OC)c2)cc(Cl)c1O` (stereo not given in full), the TGI in [1], in [2], in experiment [3], in experiment [4], in experiment [5] and in experiment [6] was greater than 10 µM each time. The TGI in experiment [7], in experiment [8], in experiment [9] and in [10] was greater than 10 µM in each case.

Consider `CN(C)CCn1c(=O)c2ccc(NCCN3CCNCC3)c3c(=O)c4ccccc4n(c1=O)c23`, for which the TGI in [1] came to 31.4 µM; in experiment [2], 0.147 µM; in experiment [3], 12.8 µM; in experiment [4], 21.3 µM; in experiment [5] it was 6.85 µM; in [6], 8.72 µM. Besides, the TGI in [7] turned out to be 9 µM; in [8], 17.3 µM; in experiment [9] it was 12.1 µM; in experiment [10] it was 14.6 µM.

For `CCOC(=O)C1=NN(c2ccc([N+](=O)[O-])cc2)[C@@]2(C)C[C@]3(c4ccccc4)N(c4ccc([N+](=O)[O-])cc4)N=C(C(=O)OCC)N3c3ccccc3N12`, the TGI in [1], in experiment [2], in [3], in experiment [4], in experiment [5] and in experiment [6] was greater than 100 µM in each case. Moreover, the TGI in [7], in experiment [8], in [9] and in experiment [10] was greater than 100 µM throughout.

`CC1(C)Cc2nc3c(cc2C(=O)C1C=N/C(C#N)=C(\N)C#N)C(=O)C(C=N/C(C#N)=C(\N)C#N)C(C)(C)C3` (stereo not given): the TGI was 8.71 µM in experiment [1]; greater than 100 µM in [2]; 2.96 µM in [3]; greater than 20.5 µM in experiment [4]; greater than 100 µM in experiment [5]; 4.69 µM in experiment [6]. For the same compound, the TGI came out at 2.41 µM in experiment [7], 6.73 µM in experiment [8], 3.56 µM in experiment [9] and 5.23 µM in experiment [10].

Take `NC(=O)Cc1nc2c(N)ncnc2n1C1OC(CO)C(O)C1O` (stereo not given): the TGI in [1], in experiment [2], in [3], in [4], in experiment [5] and in [6] was greater than 100 µM in each case. The TGI in [7], in experiment [8], in experiment [9] and in experiment [10] was greater than 100 µM in each case.

As to `CC(=O)OCC1OC(n2c(-c3ccccc3)c(C(C)=O)c(-c3cccc4ccccc34)c(C#N)c2=S)C(OC(C)=O)C(OC(C)=O)C1OC(C)=O` (stereo not given), the TGI in experiment [1], in [2], in experiment [3], in [4], in experiment [5] and in experiment [6] was greater than 100 µM each time. Also, the TGI in experiment [7], in [8], in experiment [9] and in [10] was greater than 100 µM in each case.

Regarding `CC(C)NC(=O)OCc1c(CO)c2c(n1C)-c1ccccc1CC2`, the TGI in experiment [1] is 57.6 µM; in [2] it was 48.9 µM; in experiment [3], 34 µM; in experiment [4] it was 38.8 µM; in experiment [5], 46 µM; in experiment [6], greater than 100 µM. In addition, the TGI in experiment [7] is 57.3 µM; in experiment [8], greater than 100 µM; in [9] it was greater than 77.6 µM; in experiment [10], 59.8 µM.

Take `Cc1c2c(c(O)c3c(O)cccc13)C(=O)C1(O)C(O)=C(C(=O)NCNc3ccc(C(N)=O)cn3)C(=O)C(N(C)C)C1C2` (stereo not given): the TGI in experiment [1] was 35.5 µM; in experiment [2], 9.41 µM; in experiment [3], greater than 100 µM; in [4] it was 42 µM; in experiment [5], 6.26 µM; in experiment [6], 34.1 µM. The TGI is 7.42 µM in experiment [7], greater than 100 µM in [8], 6.27 µM in experiment [9] and greater than 100 µM in experiment [10].

On to `O=c1[nH]nc(Cc2c[nH]c3ccccc23)o1`, for which the TGI in [1], in [2], in experiment [3], in [4], in experiment [5] and in experiment [6] was greater than 100 µM each time. Further, the TGI in experiment [7], in experiment [8], in experiment [9] and in experiment [10] was greater than 100 µM each time.

`COC(=O)c1ccc(N=NN(C)COc2ccc(Br)cc2)cc1`: the TGI was greater than 100 µM in experiment [1]; greater than 92.6 µM in experiment [2]; greater than 100 µM in experiment [3]; greater than 100 µM in [4]; greater than 100 µM in experiment [5]; greater than 100 µM in [6]. Moreover, the TGI in experiment [7], in [8], in experiment [9] and in experiment [10] was greater than 100 µM throughout.

Consider `Cc1cc(/C=C/c2cc[n+](C)c3ccccc23)c(O)c2ncccc12`, for which the TGI in experiment [1] was determined as 16.1 µM; in [2], 7.47 µM; in experiment [3], 7.34 µM; in experiment [4], 19.3 µM; in [5] it was 13.7 µM; in [6] it was 18.8 µM. Besides, the TGI in experiment [7] is 1.99 µM; in experiment [8] it was 13.5 µM; in experiment [9], 8.39 µM; in experiment [10] it was 16 µM.

As to `CC(C)NC(=O)N(Nc1ccccc1)C(C)(C)C`, the TGI in [1], in experiment [2], in [3], in [4], in experiment [5] and in experiment [6] was greater than 100 µM throughout. Also, the TGI in experiment [7], in experiment [8], in experiment [9] and in experiment [10] was greater than 100 µM each time.

For `CC(=O)NC1(c2cc3ccccc3s2)CCCCCC1`, the TGI in [1] is greater than 100 µM; in experiment [2], 44.4 µM; in experiment [3] it was greater than 100 µM; in [4], greater than 100 µM; in experiment [5], 97.3 µM; in [6] it was 53.2 µM. Besides, the TGI in experiment [7], in experiment [8], in experiment [9] and in experiment [10] was greater than 100 µM in each case.

As for `COc1cc(/C=N/n2c(-c3ccccc3)nn(C(C)=O)c2=O)cc(OC)c1OC`, the TGI in experiment [1] is greater than 82.2 µM; in experiment [2], greater than 52.7 µM; in [3] it was greater than 100 µM; in experiment [4], greater than 100 µM; in experiment [5], greater than 100 µM; in [6] it was 18.4 µM. In addition, the TGI in experiment [7] was 8.54 µM; in [8], greater than 39.3 µM; in [9], greater than 100 µM; in [10] it was greater than 100 µM.

Consider `COc1cc(-c2cc(=O)c3c(O)c(CC=C(C)C)c(O)cc3o2)ccc1O`, for which the TGI in experiment [1], in [2], in [3], in experiment [4], in experiment [5] and in experiment [6] was greater than 50 µM throughout. For the same compound, the TGI is 47.6 µM in experiment [7], greater than 50 µM in experiment [8], greater than 50 µM in experiment [9] and greater than 50 µM in [10].

As for `O=C(O)CCSCc1ccccc1`, the TGI in [1], in experiment [2], in [3], in [4], in experiment [5] and in [6] was greater than 100 µM in each case. Moreover, the TGI in [7], in experiment [8], in experiment [9] and in experiment [10] was greater than 100 µM each time.
